# Test results published in patent US5451506A, “Oncostatin M and novel compositions having anti-neoplastic activity” (Oncogen Limited Partnership, priority 1993, dated 1995).
# Values joined by “and” are separate entries in the source; they are usually repeats but may differ in a detail not shown here. Equal entries are not always repeated.
# Assays:
# A549 lung cancer cells = experiment: Cell growth modulatory assay using 3H-thymidine incorporation into DNA (GIA); format: cell-based, human
# Method: (§1) The assays were performed in 96 flat well plates (Costar 3596). Human melanoma cells (A375) (3×10^3 /100 μl) or cells from another cell line of interest were at an appropriate cell density used. Cells in 100 μl growth medium were placed in each well. Three hours later, 100 μl of test sample in growth medium was added to each well. Plates were incubated at 37° C. for 3 days. Then 25 μl (0.5 μCi) of a solution of ^3 H-thymidine (specific activity 27 μCi/μg) was added to each well for the final 6 hours of incubation. The cells were then transferred to glass filter strips using a multiwell harvester (PHD Cell Harvester, Cambridge Technology, Inc.). The filters were transferred to scintillation vials. Two ml of scintillation fluid (ScientiVerse II, Fisher Scientific Co.) was added and the samples counted in a scintillation counter to quantitate ^3 H-thymidine incorporation.
# The effect of Oncostatin M on various cell lines was assessed using a cell growth modulatory assay performed as described in Example 1B, above. The cell lines tested included A549 lung cancer cells. HTB10 neuroblastoma cells, and A375 melanoma cells.
# [1] = system: γ-interferon-sensitive human tumor cell line; experiment: Cytotoxic activity against a γ-interferon-sensitive tumor line; format: cell-based
# A375 melanoma cells = experiment: Cell growth modulatory assay using 3H-thymidine incorporation into DNA (GIA); format: cell-based, human; set-up: Observed % Inhibition of 3H-TdR Incorporation: concentration or dose not given beside the values
# Method: as §1
# A375 tumor cells = experiment: Inhibition of growth of A375 tumors in nude mice; format: in vivo; conditions: for Cumulative Tumor Size: 3 mice
# Method: A375 tumor cells (2.3×10^6) or an appropriate number of cells of another cell line of interest were injected subcutaneously in the interscapular region of nude mice. When the tumors became palpable, half of the mice were inoculated subcutaneously proximal to the tumor with either (a) 100 μl PBS containing 1.6 μg bovine serum albumin (BSA) or (b) 100 μl PBS containing 1.6 μg BSA plus the test sample. The mice were inoculated in the same manner every 2-3 days until about 19 days after the first inoculation. The diameter and width of each tumor was measured every 2-3 days using calipers.
# Six nude mice were injected with A375 cells as described in Example 1D, above. After the tumors became palpable, the mice were injected, proximal to the tumor, with PBS (control) or PBS containing 400 ng Oncostatin M, three mice in each group.
# The cumulative sizes (mm^2) of the tumors in each group of three mice were determined every 2-3 days.
# Mouse L929 cells = experiment: Effect on mouse L929 cells; format: cell-based; conditions: mouse L929 cells, sensitive to tumor necrosis factor
# Method: The ability of PBL-derived Oncostatin M to affect replication of a variety of cells was also investigated. Mouse L929 cells were insenstive to PBL-derived Oncostatin M using up to 1000 GIA units/ml. Growth of human fibroblasts, WI26, was stimulated by treatment with 1000 GIA units/ml. Normal human T-lymphocyte proliferation at 72 hours post mitogenesis was not affected by up to 500 GIA units/ml.
substance,measurement,setting,value
Oncostatin M: Human polypeptide growth regulator produced by activated leukocytes; apparent molecular weight approximately 28 kD by PAGE,GIA Units to Cause 30% Inhibition 3H-TDR Incorporation,A549 lung cancer cells; A549 (lung cancer),21.0 GIA Units
same,concentration to cause 30% inhibition 3H-TdR,"A549 lung cancer cells; A549, based upon the specific activity of purified Oncostatin M",approximately 1.4 ng/ml
same,% Inhibition of 3H-thymidine incorporated,"A549 lung cancer cells; Exp. 3, A549, 8 GIA units/well",16%
same,% Inhibition of 3H-thymidine incorporated,"A549 lung cancer cells; Exp. 3, A549, 25 GIA units/well",22%
same,% Inhibition of 3H-thymidine incorporated,"A549 lung cancer cells; Exp. 3, A549, 75 GIA units/well",30%
same,Cytotoxic activity,[1],lacks cytotoxic activity
same,GIA Units to Cause 30% Inhibition 3H-TDR Incorporation,A375 melanoma cells; A375 (melanoma),0.3 GIA Units
same,concentration to cause 30% inhibition 3H-TdR,"A375 melanoma cells; A375, based upon the specific activity of purified Oncostatin M",~0.015 ng/mL
same,Observed % Inhibition of 3H-TdR Incorporation,A375 melanoma cells; A375 Cells,17%
same,% Inhibition of 3H-thymidine incorporated,"A375 melanoma cells; Exp. 1, A375, 1 GIA units/well",46%
same,% Inhibition of 3H-thymidine incorporated,"A375 melanoma cells; Exp. 1, A375, 4 GIA units/well",62%
same,% Inhibition of 3H-thymidine incorporated,"A375 melanoma cells; Exp. 1, A375, 16 GIA units/well",83%
same,% Inhibition of 3H-thymidine incorporated,"A375 melanoma cells; Exp. 2, A375, 3 GIA units/well",76%
same,% Inhibition of 3H-thymidine incorporated,"A375 melanoma cells; Exp. 2, A375, 9 GIA units/well",87%
same,% Inhibition of 3H-thymidine incorporated,"A375 melanoma cells; Exp. 3, A375, 8 GIA units/well",71%
same,% Inhibition of 3H-thymidine incorporated,"A375 melanoma cells; Exp. 3, A375, 25 GIA units/well",85%
same,% Inhibition of 3H-thymidine incorporated,"A375 melanoma cells; Exp. 3, A375, 75 GIA units/well",89%
same,% Inhibition of 3H-thymidine incorporated,"A375 melanoma cells; Exp. 4, A375, 1 GIA units/well",59%
same,% Inhibition of 3H-thymidine incorporated,"A375 melanoma cells; Exp. 4, A375, 5 GIA units/well",75%
same,% Inhibition of 3H-thymidine incorporated,"A375 melanoma cells; Exp. 4, A375, 20 GIA units/well",87%
same,Growth inhibitory activity contained in the fraction,"A375 melanoma cells; apparently homogeneous C18^3 fraction, approximately 300 ng protein","about 40,000 GIA units"
same,Proliferation of A375 cells,"A375 melanoma cells; protein electroeluted from the 28 kD band, non-reducing PAGE",inhibit proliferation of A375 cells
same,Tumor size relative to control animals,A375 tumor cells; 400 ng Oncostatin M vs PBS,about half the size of those in control animals
same,Tumor weight relative to control-treated mice,"A375 tumor cells; 400 ng Oncostatin M vs PBS, after 21 days",approximately one-third the weight of the tumors from the control-treated mice
same,Cumulative Tumor Size,"A375 tumor cells; day 0 after treatment, 400 ng, PBS 70",50 mm^3
same,Cumulative Tumor Size,"A375 tumor cells; day 3 after treatment, 400 ng, PBS 116",64 mm^3
same,Cumulative Tumor Size,"A375 tumor cells; day 5 after treatment, 400 ng, PBS 130",66 mm^3
same,Cumulative Tumor Size,"A375 tumor cells; day 7 after treatment, 400 ng, PBS 160",90 mm^3
same,Cumulative Tumor Size,"A375 tumor cells; day 10 after treatment, 400 ng, PBS 180",88 mm^3
same,Cumulative Tumor Size,"A375 tumor cells; day 12 after treatment, 400 ng, PBS 210",100 mm^3
same,Cumulative Tumor Size,"A375 tumor cells; day 14 after treatment, 400 ng, PBS 268",116 mm^3
same,Cumulative Tumor Size,"A375 tumor cells; day -1 after treatment, 400 ng s.c. proximal to tumor every 2-3 days, PBS 30",30 mm^3
same,Tumor Wt,"A375 tumor cells; individual mice (No. 94, 97, 95) after 21 days, PBS mice 540, 440, 480",100 mg and 140 mg and 200 mg
same,Cytotoxic activity,Mouse L929 cells,lacks cytotoxic activity
